Data taken from ChEMBL document CHEMBL3826919, “The discovery of novel and selective fatty acid binding protein 4 inhibitors by virtual screening and biological evaluation” (Bioorg Med Chem, 2016).

Columns and labels:
[1] = target: T1, Fatty acid-binding protein, adipocyte (Homo sapiens, UniProt P15090); assay: Binding affinity to His6-tagged FABP4 (unknown origin) expressed in Escherichia coli BL21(DE3) cells assessed as change in melting temperature at 50 uM after 30 mins by SYPRO orange dye based thermal stability shift assay
Target sequence in this assay (P15090 2-132 limits assumed): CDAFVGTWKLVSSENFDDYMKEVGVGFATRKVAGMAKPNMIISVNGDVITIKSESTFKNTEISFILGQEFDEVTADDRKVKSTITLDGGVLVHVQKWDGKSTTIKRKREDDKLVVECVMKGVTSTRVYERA

[2] = target: T1, Fatty acid-binding protein, adipocyte; assay: Displacement of 1,8-ANS from His6-tagged FABP4 (unknown origin) expressed in Escherichia coli BL21(DE3) cells at 25 uM by fluorescence assay relative to control
Target sequence in this assay (P15090 2-132 limits assumed): as above

[3] = target: T1, Fatty acid-binding protein, adipocyte; assay: Displacement of 1,8-ANS from His6-tagged FABP4 (unknown origin) expressed in Escherichia coli BL21(DE3) cells by fluorescence assay; details: read-out: Ki(app)
Target sequence in this assay (P15090 whole entry): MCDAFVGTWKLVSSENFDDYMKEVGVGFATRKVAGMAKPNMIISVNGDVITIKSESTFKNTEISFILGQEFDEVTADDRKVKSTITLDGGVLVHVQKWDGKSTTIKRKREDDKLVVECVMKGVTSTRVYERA

Homo sapiens [4] = organism: Homo sapiens; assay: Displacement of 1,8-ANS from His6-tagged FABP4 (unknown origin) R106A mutant expressed in Escherichia coli BL21(DE3) cells at 25 uM by fluorescence assay relative to control
Homo sapiens [5] = organism: Homo sapiens; assay: Displacement of 1,8-ANS from His6-tagged FABP4 (unknown origin) R126A mutant expressed in Escherichia coli BL21(DE3) cells at 25 uM by fluorescence assay relative to control
[6] = target: T2, Fatty acid-binding protein, adipocyte (Mus musculus) (UniProt P04117); assay: Inhibition of FABP4 in mouse RAW264.7 cells assessed as inhibition of LPS-induced TNFalpha production after 24 hrs by ELISA; assay type: cell-based
T2 sequence (whole entry): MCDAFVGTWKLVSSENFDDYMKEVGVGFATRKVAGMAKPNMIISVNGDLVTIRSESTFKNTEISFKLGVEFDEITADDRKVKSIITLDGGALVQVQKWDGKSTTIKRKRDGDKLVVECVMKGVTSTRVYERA

[7] = target: T2, Fatty acid-binding protein, adipocyte (Mus musculus); assay: Inhibition of FABP4 in mouse RAW264.7 cells assessed as inhibition of LPS-induced IL-6 expression after 24 hrs by qPCR method; assay type: cell-based
[8] = target: T2, Fatty acid-binding protein, adipocyte (Mus musculus); assay: Inhibition of FABP4 in mouse RAW264.7 cells assessed as inhibition of LPS-induced TNFalpha expression after 24 hrs by qPCR method; assay type: cell-based

Compound	ΔTm [1] [°C]	inhibition [2] [%]	other results
O=C(O)C(Cc1ccc(O)cc1)N1C(=O)c2c(Cl)c(Cl)c(Cl)c(Cl)c2C1=O (stereo not given)	0.5	6	–
Cc1ccc(/N=C2/NC(=O)/C(=C/c3cccn3-c3cccc(C(=O)O)c3)S2)cc1C	-9	36.8	Ki [3]: 3600 nM
CN1C(=O)/C(=N/c2cccc(C(=O)O)c2)S/C1=C\c1cccs1	-0.3	25.8	–
COc1ccccc1-c1cc(C(F)(F)F)nc(S(=O)(=O)CCCC(=O)O)n1	-9.1	–	–
CCCCCCCC/C=C\CCCCCCCC(=O)O	3.3	82.1	inhibition (Homo sapiens [4]): 69.4%; inhibition (Homo sapiens [5]): 48.8%
C=C1C(N(CCc2ccc(OC)cc2)C(=O)CCC(=O)O)CC(=O)N1c1ccccc1 (stereo not given)	-0.1	1	–
Cc1[nH]nc2c1C1(C(=O)N(C(C)C(=O)O)c3ccccc31)C(C#N)=C(N)O2 (stereo not given)	0.1	6	–
COc1cccc(-c2[nH]c3ccccc3c2C2c3ccccc3C(=O)N2CCC(=O)O)c1 (stereo not given)	1.1	6.3	–
O=C(O)c1cccc2c1NC(c1ccccc1[N+](=O)[O-])C1CC(Sc3ccccc3[N+](=O)[O-])C(Cl)C21 (stereo not given)	-0.2	41.5	Ki [3]: 5400 nM
CC(Sc1nc(-c2ccccc2)c(-c2ccccc2)[nH]1)C(=O)O (stereo not given)	3.1	–	–
CCCCCCCn1c(SCC(=O)O)nc2c1c(=O)[nH]c(=O)n2C	2	13	–
O=C(O)CCC(=O)Nc1sc2c(c1C(=O)Nc1cccc3ccccc13)CCCCC2	0.2	0.4	–
CCCCC/C=C\C/C=C\CCCCCCCC(=O)O	1.1	–	–
Cc1cc2c3c(c1)C1C=CCC1C(C(=O)O)N3CC1CC=CC21 (stereo not given)	6.2	–	inhibition [6]: Dose-dependent effect; inhibition [7]: Dose-dependent effect; inhibition [8]: Dose-dependent effect; Ki [3]: 380 nM
O=C(CSc1ncccc1C(=O)O)c1ccc(O)c(O)c1	-0.6	-0.2	–
O=C(O)CCC(=O)Nc1ccccc1C(=O)N1CCCCCC1	-0.1	3.4	–
Cc1ccc(-n2c(SCC(=O)Nc3c(C)cccc3C)nc(O)cc2=O)cc1	0	-3	–
Cc1oc2ccc(NS(=O)(=O)c3ccccc3)cc2c1C(=O)O	0.2	9.5	–
O=C(O)CCSc1nc2ccccc2n1Cc1ccccc1	2.8	27.9	–

Compound	ΔTm [1] [°C]	inhibition [2] [%]	other results
COc1ccc(C2C(C(=O)c3ccc(C)cc3)=C(O)C(=O)N2CCCC(=O)O)cc1OC (stereo not given)	1	16.6	–
O=C(O)CC/C(=N/NC(=O)c1c[nH]c2ccccc12)c1ccccc1	-0.8	-0.8	–
CCCN1C2=C(C(=O)CC(C)(C)C2)C(c2cc(Cl)ccc2OCC(=O)O)C2=C1CC(C)(C)CC2=O	-0.2	–	–
Cc1ccc(C(=O)/C(=C\Nc2cc(Cl)ccc2C(=O)O)c2nnnn2-c2ccc(C)cc2)cc1	-2.6	-2.5	–
COc1ccc(CN(C(=O)COc2cc(C)ccc2C(C)C)c2ccccc2C(=O)O)cc1	0.1	18.5	–
CC(=O)NC(Cc1ccc(O)cc1)C(=O)O (stereo not given)	-0.1	-3.6	–
O=C(O)CSc1cc(NS(=O)(=O)c2ccc(Cl)cc2)c2ccccc2c1O	-2.8	70	Ki [3]: 2300 nM
Cc1cc(C)c2c3c1C1C=CCC1CN3C(C(=O)O)C1CC=CC21 (stereo not given)	5.8	–	Ki [3]: 610 nM
COc1ccc(-c2ccc(C#N)c(SCC(=O)NCC(=O)O)n2)cc1	-0.1	–	–
COc1ccccc1N1CCN(C(=O)c2ccccc2NC(=O)C2CCCCC2C(=O)O)CC1 (stereo not given)	0.1	-5	–
CCCOc1cc(S(=O)(=O)Nc2ccc(C(=O)O)cc2)ccc1Cl	0.1	31.4	Ki [3]: 4300 nM
COc1ccc(Cc2c(C)[nH]c3ccc(C(=O)O)cc23)cc1	1.2	–	–
Cc1ccc(C(=O)C2=C(O)C(=O)N(CCCC(=O)O)C2c2ccccc2F)cc1 (stereo not given)	0	17.1	–
Cc1ccc(C(C[N+](=O)[O-])c2c(-c3ccccc3C)n[nH]c2O)cc1 (stereo not given)	-3.7	5.8	–
Cc1nc(=O)c(-c2ccccc2)c(C)n1CCCCCC(=O)O	0	-3.2	–
Cc1ccc(C)c(NC(=O)C2CCC(C)(C(=O)O)C2(C)C)c1 (stereo not given)	0.1	0.5	–
CCCCCC(=O)N(CN1C(=O)c2ccccc2C1=O)c1cccc(C(=O)O)c1	-0.2	-1.9	–
O=C(O)C1C2CC=CC2c2cc(Cl)cc3c2N1CC1CC=CC31 (stereo not given)	7.9	–	Ki [3]: 690 nM
O=C(O)C1CCCCC1C(=O)Nc1ccccc1-c1ccccc1 (stereo not given)	3.9	27.7	–

Compound	ΔTm [1] [°C]	inhibition [2] [%]	other results
Cc1oc2c(cc(NS(=O)(=O)c3ccc(Cl)cc3)c3ccccc32)c1C(=O)O	2.8	30.2	–
O=C(Nc1cc(Cl)ccc1Cl)/C(=N\Nc1ccccc1C(=O)O)C(=O)c1ccccc1	0.3	39.5	Ki [3]: 10300 nM
O=C(O)C1C2CC(Sc3ccccc3[N+](=O)[O-])C(Cl)C2c2cccc3c2N1CC1CC=CC31 (stereo not given)	3.5	60.2	Ki [3]: 3100 nM
CCOC(=O)c1cnc2c(ccc3ccccc32)c1Nc1cccc(C(=O)O)c1	0.2	18.2	–
Cc1ccc(S(=O)(=O)NC(CC(=O)O)c2ccccc2)c(C)c1 (stereo not given)	0.2	-0.3	–
CCc1c(-c2ccccc2)c(-c2ccccc2)nn1-c1ccccc1-c1cccc(OCC(=O)O)c1	10.6	–	inhibition [6]: Dose-dependent effect; inhibition [7]: Dose-dependent effect; inhibition [8]: Dose-dependent effect
CCOc1cc(/C=C2/SC(=S)N(CCC(=O)O)C2=O)ccc1O	-1.8	63.2	Ki [3]: 2500 nM
O=c1cc(O)c2c(=O)n(N(c3ccccc3)c3ccccc3)c3c(c2o1)CCCC3	0.3	0.9	–
O=C(O)CC(Sc1nc2sc3c(c2c(=O)[nH]1)CCCC3)C(=O)O (stereo not given)	0.1	–	–
O=C(O)C1C2CC=CC2c2c3c(cc4ccccc24)C2C=CCC2CN31 (stereo not given)	7.5	–	–
O=C(O)c1ccc(S(=O)(=O)Nc2ccc(O)c(Sc3nc4ccccc4s3)c2)cc1	0.1	7.2	–
CN(CC(=O)O)c1ncc(-c2nnnn2-c2ccccc2)c(-c2ccccc2Cl)n1	0	0.5	–
CCc1ccccc1NC(=O)C(OC(=O)c1ccccc1)C(OC(=O)c1ccccc1)C(=O)O (stereo not given)	0.5	2.1	–
O=C(O)COc1ccc(Br)cc1/C=C1\S/C(=N\c2ccc(Cl)cc2)NC1=O	-0.6	–	–
O=C(O)c1cccc(-c2ccc(CNC(Cc3c[nH]c4ccccc34)C(=O)O)o2)c1 (stereo not given)	-2.4	–	–
O=C(O)c1ccccc1C(=O)N(Cc1ccccc1)Cc1ccccc1	1	4.9	–
Cc1cc(=O)n2c3c(cc(S(=O)(=O)NCc4ccc(C(=O)O)cc4)cc13)CC2	0.8	–	–
COc1ccc(S(=O)(=O)Nc2ccccc2C(=O)O)c2ccccc12	1.2	20.3	–
